This is an account of results in a melting point compilation (Tetko et al.; mined from patent text by program, amines drawn as free bases though some values may be those of a salt).

Structures are written as SMILES.

Broadly, the melting point is the temperature of the solid-liquid transition.

Molecule `Cc1nc(-c2cccc([N+](=O)[O-])c2)cs1` registered a melting point of 87 to 88 °C.
`CC1C(=O)N(c2cccc(F)c2)C(=S)N1c1ccc(Oc2ccccc2)cc1` (configuration not stated) registered a melting point of 116 °C.
Regarding `COCCOc1ccc(/C=C/C(=O)O)c(Oc2ncc(NC(=O)OC(C)(C)C)cc2C)c1`, the melting point is 159 to 160 °C.
With `O=C(c1ccc(-c2cccc3ccccc23)cc1)N1Cc2cccn2Cc2ccccc21`, the melting point is 170 to 171 °C.
Molecule `COc1ccc(NC(N)=O)c(C#N)c1OC` registered a melting point of 198 to 200 °C.
As for `COC(=O)C(O)=Cc1ncc(Cc2ccc(F)cc2)cn1`, the figure is 132 to 134 °C; as for `Cc1nc2n(c1C)N=C(c1ccc(N)cc1)c1cc3c(cc1C2)OCO3`, 226 to 227 °C; as for `Cc1oc(-c2ccc(C(F)(F)F)cc2)nc1-c1ccc2c(Br)c(OC(Cc3ccccc3)C(=O)O)ccc2c1` (configuration not stated), 195 to 197 °C.
In turn, `CCN(CC)CCNC(=O)c1cc(Cl)c(NS(=O)(=O)c2ccc3ccccc3c2)cc1OC` returned a melting point of 148 to 149 °C.
The molecule `Nc1ccc2ncnc(Nc3ccc(Oc4ccccc4)cc3)c2c1` had a melting point of 89 to 90 °C.
In turn, `Nc1cc(Cc2n[nH]c(=O)c3ccccc23)ccc1Cl` returned a melting point of 227 to 228 °C.
In turn, `CC(C)(C)OC(=O)N1CCn2c(c(C#N)c(Cl)c2C2CC2)C1` displayed a melting point of 132 to 134 °C.
In turn, `O=C1CCCc2cc(O)cc(O)c21` registered a melting point of 209 to 210 °C.
Molecule `NC(=O)c1sc2nccc(N3CCCN(c4ccccc4)CC3)c2c1N` gave a melting point of 215 to 218 °C.
Turning to `C[C@H](c1ccccc1)n1c(O)nc2c(Cl)nc3ccccc3c21`, the melting point was 227 to 229 °C.
In turn, `COc1ccc(C(=O)CCC(=O)O)cc1NC(C)=O` registered a melting point of 184 to 185 °C.
On to `CC(C)(C)OC(=O)N1CCN(c2ccc(S(=O)(=O)c3ccccc3)c([N+](=O)[O-])c2)CC1`, for which the melting point fell in the range of 190 to 191 °C.
Regarding `CCC(=O)N(C(=O)CC)c1nnc2c3c(c(N4CCCCC4)nn12)CCCC3`, the melting point was in the range of 128 to 129 °C.
`CCCCOC(=O)Cn1cccc1-c1nc(-c2ccc(OC)cc2)c(-c2ccc(OC)cc2)s1` came in with a melting point of 98 to 101 °C.
`COCC1CN(c2ccc3ccc(N)cc3c2)C(=O)O1` (configuration not stated) gave a melting point of 98 to 99 °C.
With `CCn1cc(C(=O)O)c(=O)c2cc(F)c(N3CCSC3)cc21`, the melting point lay in the range of 270 to 273 °C.
As for `CNc1scc(C)c1C(=O)c1ccccc1Cl`, the figure is 132 to 134 °C; as for `CS(=O)(=O)c1ncc(OCc2ccccc2)cn1`, 100 to 102 °C.
The molecule `Oc1ccc(Oc2ccc(Br)cc2F)cc1` returned a melting point of 83.5 to 85 °C.
`Brc1cncc(OCc2ccc3ccccc3c2)c1`: the melting point is 108 to 109 °C.
The molecule `COc1ccccc1[C@H](c1cccc2ccccc12)[C@@](C)(C#N)C(=O)N1CCN(c2ccc(Cl)cc2)CC1` yielded a melting point of 178 to 180 °C.
With `CCN(CC)CCCNC(=O)Cn1c(-c2ccc(Cl)cc2)nc2cccnc21`, the melting point lay in the range of 172 to 174 °C.
The figure for `O=c1c([N+](=O)[O-])c[nH]c2sccc12` is 288 to 291 °C; for `Cc1cn(-c2ncccn2)cc1C(=O)NC(=N)N` it is 208 °C.
Molecule `CNC(=C[N+](=O)[O-])NCCCSc1nccc(NC(N)=NCC(F)(F)F)n1` showed a melting point of 189 to 191 °C.
As to `CCCOc1c(OC)cc(C(CCC(C(=O)O)c2cc(OC)c(OC)c(OC)c2)C(=O)O)cc1SC` (configuration not stated), the melting point was 172 to 174 °C.
As for `CC(=O)Sc1cc(-c2ccc(C(F)(F)F)n(C)c2=O)c(F)cc1Cl`, the melting point was 91 to 92 °C.
Regarding `CC(=O)OCC1OC(n2cc(F)c(=O)[nH]c2=O)CC1OC(C)=O` (configuration not stated), the melting point was determined as 151 °C.
`CCOC(=O)c1cnn(C)c1C(=O)Nc1ccn2nc(N(C)C)nc2c1` gave a melting point of 193 to 195 °C.
Regarding `COc1ccc(C2=NN(C3CCSCC3)C(=O)[C@H]3CC=CC[C@@H]23)cc1Cl` (relative stereo), the melting point was 170 to 171 °C.
Take `Cc1cc(SC(=O)N(C)C)c(C(C)(C)C)cc1CO`: the melting point came out at 136 °C.
Take `CC(=O)N(O)C(C)c1cn(C)c2ccccc12` (configuration not stated): the melting point fell in the range of 106 to 108 °C.
In turn, `CC(=O)c1ccc(-n2c(-c3sc(NC(=O)c4ccccc4)nc3-c3ccccc3)nc3ccccc3c2=O)cc1` gave a melting point of 250 to 252 °C.
The molecule `Cc1nnc(-c2ccc(F)cc2)n2nc(OCc3ncnn3C)c(-c3ccsc3)c12` yielded a melting point of 171 to 177 °C.
`Cc1cc(C2=NNC(=O)C2)ccc1[N+](=O)[O-]` had a melting point of 218 to 219 °C.
As to `CCCCCCCCCCCCCCc1ccc(O)c(C(=O)CCCCC)c1`, the melting point lay in the range of 41 to 42 °C.
The figure for `O=C(CCl)Nc1cccc2c1C(=O)c1c(NC(=O)CCl)cccc1C2=O` is 280 to 281 °C; for `CC(C)C1Sc2ccccc2NC(=O)C1N` (configuration not stated) it is 180 to 183 °C; for `Nc1cc(NS(=O)(=O)CCl)c(Cl)cc1F` it is 104 to 106 °C.
The figure for `O=C(O)COCC(=O)N1CCC(C(c2ccccc2)c2ccccc2)CC1` is 140 to 141 °C; for `COC(=O)c1c(-c2ccccc2)nc2c(c1N)c1c(n2Cc2ccc(OC)cc2)CCCC1` it is 192 to 194 °C; for `CCOC(=O)C(=NOC)c1csc(NC(=O)CCl)n1` it is 81 to 82 °C.
The molecule `CC(CO)c1ccc2oc3nc(N)c(C(=O)O)cc3c(=O)c2c1` (configuration not stated) returned a melting point greater than 300 °C.
Molecule `CN(C)Cc1ccc(Cn2ccc(OCc3ccc(F)cc3F)c(Br)c2=O)cc1` returned a melting point of 111 to 113 °C.
For the molecule `COc1ccccc1N(CN1CCOC1=O)C(=O)CCl`, the melting point is 109 to 110 °C.
Regarding `CC(=O)Oc1cc(C)c(C)c(C)c1C1(OC(C)=O)C(=O)c2ccccc2C1=O`, the melting point is 238 to 242 °C.
In turn, `CC(Oc1ncn(-c2ccc(C(F)(F)F)cc2)n1)C(=O)N(C)C` (configuration not stated) registered a melting point of 102 to 104 °C.
For `COc1c(C(=O)O)sc(C)c1C`, the melting point is 142 to 143 °C.
`O=C(O)/C=C/n1cnc2ccc(C3CC3)cc2c1=O` registered a melting point of 291 to 293 °C.
`Cc1[nH]cnc1/C=C1\CCc2c(c3cccc4c3n2CCC4)C1=O`: the melting point fell in the range of 260 to 264 °C.
As for `Oc1cccc2c1Oc1ccccc1C21CCN(CC=CCl)CC1`, the figure is 153 to 155 °C.
Turning to `CCOC(=O)c1cc(C(Br)Br)cnc1Br`, the melting point lay within 88 to 89 °C.
`Cc1nn(-c2cccnc2)cc1NC1CC1`: the melting point fell in the range of 104 to 107 °C.
For the molecule `COC(=O)C1=C(C)NC(C)=C(C(=O)OCCN2CCN(Cc3ccccc3)CC2)C1c1cccc([N+](=O)[O-])c1` (configuration not stated), the melting point was in the range of 106 to 108 °C.
The figure for `O=S(=O)(c1ccc(Cl)cc1)C(c1ccc(CN2CCCCC2)cn1)c1cc(F)ccc1F` (configuration not stated) is 113 to 114 °C.
The figure for `Fc1cc(F)c(-c2cncn2-c2ccc(Cl)cc2)c(F)c1` is 170 to 172 °C; for `CC(C)c1nc2c(C(F)(F)F)cccc2c(O)c1C(=O)O` it is 204 °C; for `Nc1ccn(C[C@@H]2O[C@H](CO)[C@@H](O)[C@@H]2O)c(=O)n1` it is 230 to 232 °C.
Consider `CNC(=O)OCC(C)Nc1ncc(Oc2cc(Cl)c(OC)cc2C(C)C)c(N)n1` (configuration not stated), for which the melting point fell in the range of 63.5 to 69.4 °C.
Molecule `Nc1cc(=O)n(Cc2ccc(OC(F)(F)F)cc2)[nH]1` had a melting point of 99 °C.
As for `O=C1CCCC(Sc2ccccc2)=C1C(=O)c1ccc(Cl)c(OCCn2cnnn2)c1Cl`, the figure is 64 to 70 °C.
Regarding `CCCCN(CCCC)S(=O)(=O)N[C@@H](Cc1ccc(NC(=O)c2c(Cl)cncc2Cl)cc1)C(=O)O`, the melting point is 167 °C.
The figure for `Cn1c(CO)nc2cc(Br)cnc21` is 142 to 144 °C; for `Cn1c(Cc2cccc(C(F)(F)F)c2)nc2c(-c3cccc(C(=O)NCCO)c3)cccc21` it is 147 to 148 °C; for `Cc1cc(O)ccc1N1CCc2c1c1cccc(C)c1[nH]c2=O` it is 244 to 246 °C.
Molecule `COc1ccc(CC(NC(=O)CNC(=O)OCc2ccccc2)C(=O)NC2C(C(=O)O)OC(n3cnc4c(NC(=O)c5ccccc5)ncnc43)C2O)cc1` (configuration not stated) came in with a melting point of 78 to 84 °C.
As for `O[C@@H]1CCCN(C[C@@H]2CCN(CCc3c[nH]c4ccc(-n5cncn5)cc34)C2)[C@@H]1c1ccccc1`, the figure is 192 to 193 °C; as for `O=C1c2c(OCc3ccccc3)c(OCc3ccccc3)cc(OCc3ccccc3)c2-c2nn(CCNCCO)c3ccc(NCCNCCO)c1c23`, 186 to 188 °C; as for `Nc1nc2ccccc2c2c1ncn2CCCCNC(=O)c1cccnc1`, 189 to 190 °C.
For `Nc1c(Cl)ncnc1NCc1ccccn1`, the melting point is 140 °C.
`CC(C)(C)OC(=O)NC[C@H]1CN(c2ccc3c(c2)CCCc2cnoc2-3)C(=O)O1` came in with a melting point of 180 to 184 °C.
As for `COc1ccc(-c2cn(-c3nc(C)c(C(=O)NCc4ccccc4)s3)nn2)cc1`, the melting point lay within 168 to 171 °C.
Molecule `O=C1OC2(CCN(C(=O)Nc3ncc(-c4ccccc4)cn3)CC2)c2c(F)cccc21` displayed a melting point of 244 to 246 °C.
As to `COCCOc1ccc(CCCOC(=O)NCC2CC2)c(Oc2ncc(C(F)(F)F)cc2Cl)c1`, the melting point lay within 87.8 to 87.9 °C.
`CCOCCc1ccc(OCCNc2ncnc3oc(C)c(C)c23)c(C)c1`: the melting point was 92 to 93 °C.
On to `O=C(Cl)ON1C(=O)c2ccccc2C1=O`, for which the melting point lay within 113 to 115 °C.
`CN1OCC(C(O)c2cc(C(C)(C)C)c(O)c(C(C)(C)C)c2)C1=O` (configuration not stated) returned a melting point of 137 to 140 °C.
For the molecule `CCOC(=O)CC(O)CC(O)C=Cc1c(-c2ccccc2)ccnc1C` (configuration not stated), the melting point is 85 to 86 °C.
The figure for `COc1cc(-c2ccc3cc4c(cc3c2C=O)OCO4)c([N+](=O)[O-])cc1OC` is 225 °C; for `Cc1c(C(=O)Nc2ccc(N3CCN(CCOCCO)CC3)c(C#N)c2)cnn1-c1ccc(Cl)cc1` it is 196 °C; for `Cc1cc(C(=O)NCOCc2cccnc2)ncc1C(c1cc(F)ccc1F)S(=O)(=O)c1ccc(F)cc1` (configuration not stated) it is 121 to 123 °C.
As for `CCN(CCNC(=O)c1ccnc(F)c1)CCNC(=O)c1cnc2cc(I)ccc2n1`, the figure is 146 to 148 °C.
